Data from PubChem BioAssay AID248 (DTP/NCI, 2004).
Several values for one entry are separate records, joined by “and”; a condition that tells them apart may be missing. Identical values can stand only once. Toxic doses and inconclusive results are not listed. Rule as the data show it: active = T/C of 150% or more; inactive = T/C below 125%.

Test system: L1210 leukemia ip in BDF1 mice, survival T/C
Assay: NCI In Vivo Anticancer Drug Screen. Data for tumor model L1210 Leukemia (intraperitoneal) in B6D2F1 (BDF1) mice
Settings: endpoint: mean survival time, higher = longer survival
Outline: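 Antitumor effect is assessed in tumor-bearing animals. Survival in the compound arm is compared with a vehicle-dosed control arm and expressed as their quotient.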

[1] = dose: 50.0 mg/kg/injection, schedule: Q01DX009 (ip), vehicle: Klucel (hydroxypropylcellulose) (HPC)
[2] = dose: 100.0 mg/kg/injection, schedule: Q01DX009 (ip), vehicle: Klucel (hydroxypropylcellulose) (HPC)
[3] = dose: 100.0 mg/kg/injection, schedule: Q04DX003 (ip), vehicle: Klucel (hydroxypropylcellulose) (HPC)
[4] = dose: 200.0 mg/kg/injection, schedule: Q04DX003 (ip), vehicle: Klucel (hydroxypropylcellulose) (HPC)
[5] = dose: 400.0 mg/kg/injection, schedule: Q04DX003 (ip), vehicle: Klucel (hydroxypropylcellulose) (HPC)
[6] = dose: 100.0 mg/kg/injection, schedule: Q04DX002 (ip), vehicle: Klucel (hydroxypropylcellulose) (HPC)
[7] = dose: 200.0 mg/kg/injection, schedule: Q04DX002 (ip), vehicle: Klucel (hydroxypropylcellulose) (HPC)
[8] = dose: 400.0 mg/kg/injection, schedule: Q04DX002 (ip), vehicle: Klucel (hydroxypropylcellulose) (HPC)
[9] = dose: 200.0 mg/kg/injection, schedule: Q01DX009 (ip), vehicle: Klucel (hydroxypropylcellulose) (HPC)
[10] = dose: 400.0 mg/kg/injection, schedule: Q01DX009 (ip), vehicle: Klucel (hydroxypropylcellulose) (HPC)
[11] = dose: 25.0 mg/kg/injection, schedule: Q04DX002 (ip), vehicle: saline with Tween-80
[12] = dose: 100.0 mg/kg/injection, schedule: Q01DX001 (ip), vehicle: Klucel (hydroxypropylcellulose) (HPC)
[13] = dose: 200.0 mg/kg/injection, schedule: Q01DX001 (ip), vehicle: Klucel (hydroxypropylcellulose) (HPC)
[14] = dose: 100.0 mg/kg/injection, schedule: Q01DX001 (ip), vehicle: carboxymethylcellulose (CMC)
[15] = dose: 200.0 mg/kg/injection, schedule: Q01DX001 (ip), vehicle: carboxymethylcellulose (CMC)
[16] = dose: 400.0 mg/kg/injection, schedule: Q01DX001 (ip), vehicle: carboxymethylcellulose (CMC)
[17] = dose: 100.0 mg/kg/injection, schedule: Q01DX001 (ip), vehicle: saline
[18] = dose: 200.0 mg/kg/injection, schedule: Q01DX001 (ip), vehicle: saline
[19] = dose: 400.0 mg/kg/injection, schedule: Q01DX001 (ip), vehicle: saline

Measured: T/C

O=[N+]([O-])c1cc([N+](=O)[O-])c(Nn2c3ccccc3c3ccccc32)c([N+](=O)[O-])c1
inactive: dose: 6.25 mg/kg/injection, schedule: Q01DX009 (ip), vehicle: Klucel (hydroxypropylcellulose) (HPC) 103 % of control | dose: 12.5 mg/kg/injection, schedule: Q01DX009 (ip), vehicle: Klucel (hydroxypropylcellulose) (HPC) 104 % of control and 87 % of control | dose: 25.0 mg/kg/injection, schedule: Q01DX009 (ip), vehicle: Klucel (hydroxypropylcellulose) (HPC) 100 % of control and 102 % of control | dose: 25.0 mg/kg/injection, schedule: Q04DX003 (ip), vehicle: Klucel (hydroxypropylcellulose) (HPC) 107 % of control | [1] 96 % of control | dose: 50.0 mg/kg/injection, schedule: Q04DX003 (ip), vehicle: Klucel (hydroxypropylcellulose) (HPC) 95 % of control | [2] 94 % of control | [3] 92 % of control and 96 % of control | [4] 94 % of control and 87 % of control | [5] 102 % of control

Cc1ccc(NC(=S)NN)cc1C
inactive: [1] 94 % of control | [2] 100 % of control | [3] 94 % of control | [4] 97 % of control

Cc1ccc(N=Nc2ccc(C)cc2NC(=O)Nc2cc([N+](=O)[O-])ccc2C)cc1
inactive: [6] 92 % of control | [7] 101 % of control | [8] 111 % of control

O=S(=O)(c1ccccc1)S(=O)(=O)c1ccccc1
inactive: [2] 107 % of control | [6] 105 % of control | [9] 88 % of control | [7] 86 % of control | [10] 96 % of control | [8] 90 % of control

COC(=O)CN(C(=O)c1ccc(OC(C)=O)cc1)c1ccccc1
inactive: [3] 100 % of control | [4] 94 % of control | [5] 96 % of control

O=C(NC(=S)Nc1ccc(Cl)cc1C(=O)c1ccccc1)c1ccc(Cl)cc1Cl
inactive: [2] 93 % of control | [9] 96 % of control | [10] 94 % of control

O=C1C=C(NCCc2cnc[nH]2)c2ccccc2C1=O
inactive: [1] 92 % of control | [2] 103 % of control

O=C(Nc1ccc2c(c1)C(=O)c1ccccc1-2)c1ccccc1
inactive: dose: 100.0 mg/kg/injection, schedule: Q01DX001 (ip), vehicle: saline with Tween-80 88 % of control | dose: 200.0 mg/kg/injection, schedule: Q01DX001 (ip), vehicle: saline with Tween-80 88 % of control | dose: 400.0 mg/kg/injection, schedule: Q01DX001 (ip), vehicle: saline with Tween-80 88 % of control

FC1(F)SC2C3CCC(C3)C2C1(F)F (stereo not given)
inactive: dose: 6.25 mg/kg/injection, schedule: Q04DX002 (ip), vehicle: saline with Tween-80 95 % of control | dose: 12.5 mg/kg/injection, schedule: Q04DX002 (ip), vehicle: saline with Tween-80 95 % of control | [11] 93 % of control

CC(=O)OCC1OC(OC(C)=O)C(OC(C)=O)C(OC(C)=O)C1OC(C)=O (stereo not given)
inactive: [12] 101 % of control | [3] 97 % of control | [13] 94 % of control | [4] 93 % of control | dose: 400.0 mg/kg/injection, schedule: Q01DX001 (ip), vehicle: Klucel (hydroxypropylcellulose) (HPC) 105 % of control | [5] 102 % of control

CCOC(=O)Nc1cc(NC(c2ccccc2)c2ccccc2)c([N+](=O)[O-])c(N)n1
inactive: [14] 91 % of control | [15] 91 % of control | [16] 89 % of control

COc1nc(C)c(C)n[n+]1C
inactive: dose: 75.0 mg/kg/injection, schedule: Q01DX001 (ip), vehicle: saline with Tween-80 107 % of control | dose: 150.0 mg/kg/injection, schedule: Q01DX001 (ip), vehicle: saline with Tween-80 104 % of control | dose: 300.0 mg/kg/injection, schedule: Q01DX001 (ip), vehicle: saline with Tween-80 111 % of control

CCCCCCCCCCCC(c1ccccc1)N(C)C (stereo not given)
inactive: dose: 50.0 mg/kg/injection, schedule: Q01DX001 (ip), vehicle: saline 98 % of control | [17] 93 % of control | [18] 93 % of control | [19] 93 % of control

Cc1c(Cl)ccc2c(C(=O)O)cc(-c3ccc(Cl)cc3)nc12
inactive: [14] 100 % of control | [15] 94 % of control | [16] 92 % of control

CN(C)C(=S)Oc1c([N+](=O)[O-])cc([N+](=O)[O-])cc1C(C)(C)C
inactive: [11] 86 % of control | dose: 50.0 mg/kg/injection, schedule: Q04DX002 (ip), vehicle: saline with Tween-80 86 % of control

CC(Br)c1ccc2c(c1)Cc1ccccc1-2 (stereo not given)
inactive: [14] 97 % of control | [15] 89 % of control | [16] 97 % of control

O=CC12C=CC(CC1)C1C(=O)OC(=O)C12 (stereo not given)
inactive: dose: 75.0 mg/kg/injection, schedule: Q01DX009 (ip), vehicle: saline 112 % of control | [17] 91 % of control | dose: 150.0 mg/kg/injection, schedule: Q01DX009 (ip), vehicle: saline 97 % of control | [18] 98 % of control | dose: 300.0 mg/kg/injection, schedule: Q01DX009 (ip), vehicle: saline 91 % of control | [19] 96 % of control

CC[N+](C)(CC)CCNC(c1ccccc1)C(Cl)(Cl)Cl (stereo not given)
inactive: dose: 5.0 mg/kg/injection, schedule: Q01DX001 (ip), vehicle: saline 92 % of control | dose: 10.0 mg/kg/injection, schedule: Q01DX001 (ip), vehicle: saline 95 % of control | dose: 20.0 mg/kg/injection, schedule: Q01DX001 (ip), vehicle: saline 103 % of control | dose: 40.0 mg/kg/injection, schedule: Q01DX001 (ip), vehicle: saline 95 % of control | dose: 80.0 mg/kg/injection, schedule: Q01DX001 (ip), vehicle: saline 106 % of control | [17] 102 % of control

O=P(Cc1ccccc1)(c1ccccc1)c1ccccc1
inactive: [3] 90 % of control | [4] 90 % of control | [5] 94 % of control

COc1cc(-c2cc(-c3ccccc3)c3cc(Cl)ccc3n2)cc(OC)c1OC
inactive: [1] 90 % of control | [2] 88 % of control | [9] 93 % of control

c1cnc2c3c(ccc2c1)CN(C12CC4CC(CC(C4)C1)C2)CO3
inactive: dose: 100.0 mg/kg/injection, schedule: Q04DX003 (ip), vehicle: saline with Tween-80 102 % of control | dose: 200.0 mg/kg/injection, schedule: Q04DX003 (ip), vehicle: saline with Tween-80 107 % of control

Oc1cc2ccccc2cc1O
inactive: dose: 100.0 mg/kg/injection, schedule: Q04DX002 (ip), vehicle: saline with Tween-80 104 % of control | dose: 200.0 mg/kg/injection, schedule: Q04DX002 (ip), vehicle: saline with Tween-80 97 % of control | dose: 400.0 mg/kg/injection, schedule: Q04DX002 (ip), vehicle: saline with Tween-80 93 % of control

COc1ccc2c(OC)c3ccoc3nc2c1OC
inactive: dose: 25.0 mg/kg/injection, schedule: Q01DX Z (ip), vehicle: carboxymethylcellulose (CMC) 97 % of control | dose: 50.0 mg/kg/injection, schedule: Q01DX Z (ip), vehicle: carboxymethylcellulose (CMC) 100 % of control

Cc1ccc([N+](=O)[O-])cc1NC(=O)Oc1ccc2c(C)cc(=O)oc2c1
inactive: [6] 101 % of control | [8] 95 % of control

CCCCCCCCCCCSc1ccc2ccccc2c1
inactive: [12] 95 % of control | [13] 90 % of control
